From patent US20250352543A1, “NANOCRYSTALLINE PREPARATION OF ROCK2 INHIBITOR AND PREPARATION METHOD THEREFOR” (BEIJING TIDE PHARMACEUTICAL CO., LTD., priority 2021, published 2025)

Assay: Solubility of the API
Assay type: physicochemical
Settings: water and a buffer salt solution with pH 1.0-pH 6.8

For `Cn1c(C(=O)N2CC(F)(F)C2)cc2ccc(-c3nccc(Nc4ccc(-c5cn[nH]c5)cc4)n3)cc21` [compound of formula (IV), [6-[4-[[4-(1H-pyrazol-4-yl)phenyl]amino]pyrimidin-2-yl]-1-methyl-1H-indole-2-yl](3,3-difluoroazetidin-1-yl)methanone], the Solubility was “insoluble”.
